Source: US10556860B2, “hTERT modulators and methods of use” (Arizona Board of Regents on Behalf of the University of …, priority 2015, dated 2020)

What was measured:
[1] = system: G138/139A mutant hTERT 5-12 fragment; assay: Single-molecule laser tweezer unfolding, G138/139A mutant; assay type: biochemical, human; conditions: 2 μM
Method: Single-molecule tweezer. Preparation of the DNA construct. The DNA construct that contains the single-stranded hTERT 5-12 fragment was prepared by sandwiching the target sequence between two double-stranded DNA handles. Five deoxythymidines were added at both ends of the hTERT 5-12 fragment to reduce the interference from the double-stranded DNA handles on the target sequence. Briefly, the 2690-base-pair double-stranded DNA handle was prepared through restriction enzyme digestion of the pEGFP vector (Clontech, Mountain View, Calif.). In the first step, the vector was digested by Sad and Eagl restriction enzymes, followed by purification with agarose gel. The EagI end of the DNA fragment was labeled with digoxigenin using terminal deoxynucleotidyl transferase. […]
Single-molecule force-ramp assay. […] After this, the two beads were moved apart to increase the tension on the DNA tether with a loading rate of 5.5 pN/s, and the force-extension (F-X) curves were recorded using the LabVIEW program (National Instruments Corp., Austin, Tex.).
The F-X curves were filtered by Savitzky-Golay function with a 10 ms time constant in the MATLAB program (The Math Works, Natick, Mass.). […] The change-in-contour length (ΔL) was calculated based on the Δx through the worm-like chain model (equation 1). […]

MYC mRNA = assay: qPCR of MYC mRNA in MCF7 cells; assay type: cell-based, human; conditions: 72 h
Method: qPCR. MCF7 and melanoma cells were treated with GTC365 and BRACO-19 for 72 h. Total RNA was extracted using an RNeasy mini-prep kit (Qiagen) and quantitated by measuring absorbance at 260 nm. cDNA was synthesized using a Takara PrimeScript™ RT Reagent Kit with gDNA eraser and then used as a template for qPCR. The qPCR was performed using Kapa Probe Fast qPCR Master Mix with ABI Taqman probes of hTERT (Hs00972656_m1), BCL2 (HS00608023_m1, FAM-labeled) or MYC (Hs00153408_m1), and GAPDH (Hs02758991_g1, VIC-labeled). The Ct values were measured by running Rotor-Gene Q, and the relative quantity of hTERT, BCL2, and MYC mRNA was obtained compared to GAPDH as an internal control.
BCL2 is a downstream molecule to hTERT such that BCL2 expression is activated by hTERT to repress apoptosis. To further define the effect of GTC365 on the transcription of hTERT, the relative mRNA levels of MYC and BCL2 were determined by quantitative PCR analysis in MCF7 cells after treatment with GTC365 for 72 h. […] A series of GTC260 analogs were synthesized and their effect on hTERT gene expression in MCF7A and U87 cells determined (FIG. 7). […] Therefore, GTC365 directly repressed the transcription of hTERT and then led to a downstream decrease of BCL2 expression.

[2] = system: telomere length in MCF7 cells; assay: Telomere length assay (qPCR) in MCF7 cells; assay type: cell-based, human; conditions: 0.5 μM
Method: Telomere length assay. MCF7 cells were treated with DMSO, GTC365 for 5-10 days, or BRACO-19 for 25-30 days. Meanwhile, cells were subcultured to maintain <90% confluent. Cells were collected by cell scraper and then subjected to gDNA extraction by DNA extraction kit (Qiagen). Ten ng of gDNA was used for SYBR Green I-based qPCR assay with 1 M betaine, 700 nM telomere primers, and 200 nM 36B4 single-copy gene. A pair of Tel1 and Tel2 was used for amplification of the telomere region and a pair of 36B4F and 36B4R for amplification of a single-copy gene to normalize data. The PCR was initiated at 95° C. for 3 min and then 27 cycles at 95° C. for 3 sec and 60° C. for 2 min. The fluorescence signal at 60° C. was acquired. Triplicate data was averaged and normalized to 36B4 to obtain ΔCt. The relative telomere length was determined compared to the DMSO.
hTERT-positive MCF7 breast cancer cell lines were used to gain mechanistic insight into how the GTC365-induced inhibition of proliferation occurs. Change in relative telomere length by GTC365 was measured by qPCR with gDNA extracted from GTC365-treated MCF7 cells. After 10 days of treatment GTC365 decreased telomere length in a dose-dependent manner, and at a dose of 0.5 μM, the telomere length was reduced by 20%. In contrast, BRACO-19 reduced telomere length by ˜12% at the same concentration but required 25-30 days of treatment (FIG. 9).

Structure (SMILES) | population of fully folded structures [1] | effect on MYC mRNA level (MYC mRNA) | reduction of telomere length ([2]; 25-30 days) [%] | reduction of telomere length ([2]; 10 days) [%]
CN(C)c1ccc(Nc2c3ccc(NC(=O)CCN4CCCC4)cc3nc3cc(NC(=O)CCN4CCCC4)ccc23)cc1 [BRACO-19, reference compound] | minimallypromoted the fully folded structure | decreased | ~12 | –
N=C(N)NCCCS(=O)(=O)Nc1ccc(Nc2c3ccccc3nc3cc([N+](=O)[O-])ccc23)cc1 [GTC365] | significantly recovered | no significant change | – | 20
